# Patent US20180312473A1, “PHENAZINE DERIVATIVES AS ANTIMICROBIAL AGENTS” (priority 2015, published 2018)
# Read-outs that look alike come from different tables or passages of the source.
# Tests used:
# S. epidermidis 12228 = experiment: MIC assay with Tiron or metal(II) cation co-treatment; format: cell-based, Staphylococcus epidermidis; settings: for MIC: Staphylococcus epidermidis
# A. baumannii 19606 = experiment: MIC assay (broth microdilution, CLSI); format: cell-based, Acinetobacter baumannii; settings: Acinetobacter baumannii, 19606; read-out: A. baumannii 19606 MIC
# K. pneumoniae 13883 = experiment: MIC assay (broth microdilution, CLSI); format: cell-based, Klebsiella pneumoniae; settings: Klebsiella pneumoniae, 13883; read-out: K. pneumoniae 13883 MIC
# [1] = system: Enterococcus faecium (ATCC 700221), VRE; experiment: MIC assay (broth microdilution, CLSI); format: cell-based
# [2] = system: VRE (E. faecium ATCC 700221) planktonic cells and biofilms; experiment: Calgary Biofilm Device (CBD) assay, MBC/MBEC; format: cell-based, Enterococcus faecium; settings: Enterococcus; Table 8; c lowest concentration tested; read-out: VRE 700221 MBC
# E. coli UAEC-1 = experiment: MIC assay (broth microdilution, CLSI); format: cell-based; settings: Escherichia coli, UAEC1; read-out: E. coli UAEC-1 MIC
# [3] = system: MRSE (S. epidermidis ATCC 35984) planktonic cells and biofilms; experiment: Calgary Biofilm Device (CBD) assay, MBC/MBEC; format: cell-based, Staphylococcus epidermidis; settings: Staphylococcus epidermidis; Table 8; read-out: MRSE 35984 MBC
# MRSA BAA-1707 = experiment: MIC assay (broth microdilution, CLSI); settings: Staphylococcus aureus, read-out: MIC, MRSA BAA-1707
# MRSA-2 = experiment: MIC assay with Tiron or metal(II) cation co-treatment; format: cell-based, Staphylococcus aureus; settings: for MIC: Staphylococcus aureus
# [4] = system: MRSA-2 planktonic cells and biofilms; experiment: Calgary Biofilm Device (CBD) assay, MBC/MBEC; format: cell-based, Staphylococcus aureus; settings: Staphylococcus aureus, MRSA
# E. faecium 700221 (VRE) = experiment: MIC assay with Tiron or metal(II) cation co-treatment; format: cell-based, Enterococcus faecium; settings: for MIC: Enterococcus faecium, VRE
# P. aeruginosa (PAO1) = experiment: MIC assay (broth microdilution, CLSI); format: cell-based; settings: Pseudomonas aeruginosa, PAO1; read-out: PAO1 MIC
# [5] = system: Staphylococcus epidermidis (ATCC 12228); experiment: MIC assay (broth microdilution, CLSI); format: cell-based; settings: Staphylococcus epidermidis, ATCC12228
# MRSA BAA-44 = experiment: MIC assay (broth microdilution, CLSI); settings: Staphylococcus aureus, read-out: MIC, MRSA BAA-44
# [6] = system: MRSA-2 (methicillin-resistant Staphylococcus aureus clinical isolate); experiment: MIC assay (broth microdilution, CLSI); format: cell-based; settings: Staphylococcus aureus, MRSA, Table 7; a midpoint of 2-fold range; b lowest concentration tested; read-out: MIC, MRSA-2
# human red blood cells = experiment: Hemolysis assay with red blood cells; settings: human, 1 h, 200 μM, pH 7.2
# Procedure: The hemolysis activities of select compounds of the invention were determined. […] The washing was repeated three times with the buffer. In 96-well plate, test compounds were added to the buffer from DMSO stocks. […] The plate was then incubated for 1 hour at 37° C. After incubation, the plate was centrifuged for 5 minutes at 3,500 rpm. Then 80 μL of the supernatant was transferred to another 96-well plate, and the optical density (OD) was read at 405 nm. DMSO served as the negative control (0% hemolysis), while Triton X served as the positive control (100% hemolysis). The percent of hemolysis was calculated as (OD405 of the compound−OD405 of DMSO)/(OD405 of Triton X−OD405 of the buffer).
# The washing was repeated three times with the buffer. In 96-well plate, test compounds were added to the buffer from DMSO stocks. […] The plate was then incubated for 1 hour at 37° C. After incubation, the plate was centrifuged for 5 minutes at 3,500 rpm. Then 80 μL of the supernatant was transferred to another 96-well plate and the optical density (OD) was read at 405 nm. DMSO served as our negative control (0% hemolysis) while Triton X served as our positive control (100% hemolysis). The percent of hemolysis was calculated as (OD405 of the test compound−OD405 DMSO)/(OD405 Triton X−OD405 buffer) from three independent experiments.
# [7] = system: Staphylococcus epidermidis (ATCC 35984), MRSE; experiment: MIC assay (broth microdilution, CLSI); format: cell-based; settings: Staphylococcus epidermidis, Table 7; read-out: MIC, MRSE 35984
# [8] = system: M. tuberculosis H37Ra (ATCC 25177); experiment: Mycobacterium tuberculosis MIC assay; format: cell-based; settings: Table 7, read-out: MIC, M. tuberculosis H37Ra
# Procedure: (§1) The culture was then diluted with fresh medium until an OD600 of 0.01 was reached. […] The final DMSO concentration was maintained at 0.5%. […] Three rows were reserved for each compound. […] OD600 absorbance was recorded using SPECTRAMAX M5 (Molecular Devices). Data obtained from three independent experiments were analyzed using Excel.
# as §1, with “EXCEL.” for “Excel.”
# in vitro = format: cell-based; settings: human
# Procedure: The cytotoxicities of select compounds of the invention against HeLa cells were determined. HeLa cytotoxicity was assessed using the LDH release assay described by CYTOTOX96 (Promega G1780). HeLa cells were grown in Dulbecco's Modified Eagle Medium (DMEM; Gibco) supplemented with 10% Fetal Bovine Serum (FBS) at 37° C. with 5% CO2. […] Triton X-100 (at 2% v/v) was used as the positive control for maximum lactate dehydrogenate (LDH) activity in this assay (e.g., complete cell death), while “medium only” lanes served as negative control lanes (e.g., no cell death). DMSO was used as the vehicle control. […] Finally, Stop Solution (50 μL) was added to the incubating plates, and the absorbance was measured at 490 nm.
# HeLa cytotoxicity was assessed using the LDH release assay described by CYTOTOX96 (Promega G1780). HeLa cells were grown in Dulbecco's Modified Eagle Medium (DMEM; Gibco) supplemented with 10% Fetal Bovine Serum (FBS) at 37° C. with 5% CO2. […] Triton X-100 (at 2% v/v) was used as the positive control for maximum lactate dehydrogenate (LDH) activity in this assay (e.g., complete cell death), while “medium only” lanes served as negative control lanes (e.g., no cell death). DMSO was used as our vehicle control. […] Finally, Stop Solution (50 μL) was added to the incubating plates and the absorbance was measured at 490 nm. Results are from three independent experiments (FIG. 19)
# [9] = S. epidermidis 12228, + loss, − increase of activity
# [10] = Table 7, b lowest concentration tested, read-out: MIC, VRE 700221
# [11] = MRSA-2, + loss, − increase of activity
# [12] = Table 8, a/b 2-/4-fold range in independent experiments, read-out: MRSA-2 MBC
# [13] = E. faecium 700221, + loss, − increase of activity
# [14] = Table 7, b lowest concentration tested, read-out: MIC, S. epidermidis 12228
# [15] = Enterococcus faecium, Table 2A, read-out: MIC, Enterococcus faecium (ATCC 700221)
# [16] = Table 2A, read-out: MIC, Staphylococcus epidermidis (ATCC 12228)
structure (smiles),measurement,setting,value
Oc1ccc(Br)c2nc3cc(Br)c(Br)cc3nc12 [Compound 13],Fold Δ (Cu^2+),S. epidermidis 12228; [9],+500
same,Fold Δ (Tiron),S. epidermidis 12228; [9],n.a. (insignificant changes in MIC values (≤2-fold changes))
same,MIC,"S. epidermidis 12228; S. epidermidis 12228, 200 μM CuSO4, read-out: MIC with Cu^2+",50 µM
same,MIC,"S. epidermidis 12228; S. epidermidis 12228, 1 mM Tiron, read-out: MIC with Tiron",0.1 µM
same,MIC,"S. epidermidis 12228; S. epidermidis 12228, no additive, read-out: MIC",0.1 µM
same,MIC,A. baumannii 19606,> 100 µM
same,MIC,K. pneumoniae 13883,> 100 µM
same,MIC,[1]; [10],6.25 µM
same,MBC,[2],> 200 µM
same,MIC,E. coli UAEC-1,> 100 µM
same,MBC,[3],> 200 µM
same,MIC,MRSA BAA-1707,0.56 µM
same,Fold Δ (Cu^2+),MRSA-2; [11],+8
same,Fold Δ (Fe^2+),MRSA-2; [11],+2
same,Fold Δ (Tiron),MRSA-2; [11],−125
same,MIC,"MRSA-2; MRSA-2, 200 μM copper(II), read-out: MIC with Cu^2+",> 100 µM
same,MIC,"MRSA-2; MRSA-2, 200 μM iron(II), read-out: MIC with Fe^2+",25 µM
same,MIC,"MRSA-2; MRSA-2, 1 mM Tiron, read-out: MIC with Tiron",0.1 µM
same,MIC,"MRSA-2; MRSA-2, no additive (Table 9), read-out: MIC",12.5 µM
same,MBC,[4]; [12],> 200 µM
same,Fold Δ (Cu^2+),E. faecium 700221 (VRE); [13],+64
same,Fold Δ (Tiron),E. faecium 700221 (VRE); [13],n.a. (insignificant changes in MIC values (≤2-fold changes))
same,MIC,"E. faecium 700221 (VRE); E. faecium 700221, 200 μM CuSO4, read-out: MIC with Cu^2+",25 µM
same,MIC,"E. faecium 700221 (VRE); E. faecium 700221, 1 mM Tiron, read-out: MIC with Tiron",0.39 µM
same,MIC,"E. faecium 700221 (VRE); E. faecium 700221, no additive, read-out: MIC",0.39 µM
same,MIC,P. aeruginosa (PAO1),> 100 µM
same,MIC,[5]; [14],2.35 µM
same,MIC,MRSA BAA-44,1.56 µM
same,MIC,[6],1.56 µM
same,% Hemolysis at 200 μM,human red blood cells,≤1%
same,MIC,[7],3.13 µM
Cc1nc2c(I)cc(I)c(O)c2nc1C [Compound 28],MIC,A. baumannii 19606,> 100 µM
same,MIC,K. pneumoniae 13883,> 100 µM
same,MIC,[8]; Mycobacterium tuberculosis,> 50 µM
same,MIC,[8],>50 µM
same,MIC,[1]; [15],6.25 µM
same,MIC,[1]; [10],6.25 µM
same,MIC,E. coli UAEC-1,> 100 µM
same,MBC,[3],23.5 µM
same,MBC,"[4]; Table 4, read-out: MBC, MRSA-2",93.8 µM
same,MBC,[4]; [12],93.8 µM
same,MIC,P. aeruginosa (PAO1),> 100 µM
same,IC50 at 24 h,in vitro,> 100 µM
same,MIC,[5]; [16],1.56 to 3.13 µM
same,MIC,[5]; [14],2.35 µM
same,% Hemolysis (200 μM),human red blood cells,1.2%
same,% Hemolysis at 200 μM,human red blood cells,1.2%
Cc1nc2c(Br)cc(Br)c(O)c2nc1C [Compound 27],MIC,A. baumannii 19606,> 100 µM
same,MIC,K. pneumoniae 13883,> 100 µM
same,MIC,[1]; [15],25 µM
same,MIC,[1]; [10],25 µM
same,MIC,E. coli UAEC-1,> 100 µM
same,MBC,"[4]; Table 4, read-out: MBC, MRSA-2",125 µM
same,MBC,[4]; [12],125 µM
same,MIC,P. aeruginosa (PAO1),> 100 µM
same,MIC,[5]; [16],12.5 µM
same,MIC,[5]; [14],12.5 µM
same,MIC,MRSA BAA-44,6.25 µM
same,% Hemolysis (200 μM),human red blood cells,≤1%
same,% Hemolysis at 200 μM,human red blood cells,≤1%
